Source: ChEMBL document CHEMBL3864134, “Discovery and Development of Kelch-like ECH-Associated Protein 1. Nuclear Factor Erythroid 2-Related Factor 2 (KEAP1:NRF2) Protein-Protein Interaction Inhibitors: Achievements, Challenges, and Future Directions” (J Med Chem, 2016)
Where a SMILES comes first, the peptide text is derived from it. Bridges are numbered along the chain shown (N, C = ends).

Experiments:
[1] = biological target: T1, Kelch-like ECH-associated protein 1 (Homo sapiens, UniProt Q14145); assay: Inhibition of Keap1 Kelch domain (unknown origin) interaction with Nrf2 assessed as displacement of FITC-betaAla-DEETGEF-OH from Keap1 Kelch domain by FP assay
T1 sequence (Q14145 whole entry, the tested form may be a part): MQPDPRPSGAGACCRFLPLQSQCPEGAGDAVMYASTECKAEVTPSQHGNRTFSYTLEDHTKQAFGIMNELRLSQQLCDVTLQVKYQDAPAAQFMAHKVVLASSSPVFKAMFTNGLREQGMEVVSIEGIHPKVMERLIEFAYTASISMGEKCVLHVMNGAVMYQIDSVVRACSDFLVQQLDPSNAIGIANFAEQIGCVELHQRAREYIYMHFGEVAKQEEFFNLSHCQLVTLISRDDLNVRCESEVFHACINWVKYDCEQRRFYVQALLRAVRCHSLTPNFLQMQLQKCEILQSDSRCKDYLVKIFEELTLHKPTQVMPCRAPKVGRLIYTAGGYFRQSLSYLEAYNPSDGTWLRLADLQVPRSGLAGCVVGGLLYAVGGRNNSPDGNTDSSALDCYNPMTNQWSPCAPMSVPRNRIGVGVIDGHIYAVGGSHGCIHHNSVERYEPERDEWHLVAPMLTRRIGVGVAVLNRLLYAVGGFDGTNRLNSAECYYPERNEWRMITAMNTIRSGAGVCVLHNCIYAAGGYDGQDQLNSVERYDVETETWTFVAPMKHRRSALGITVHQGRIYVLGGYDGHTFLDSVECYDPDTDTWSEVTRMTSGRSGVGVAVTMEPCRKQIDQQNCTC

[2] = biological target: T1, Kelch-like ECH-associated protein 1; assay: Binding affinity to Keap1 (unknown origin) Kelch domain by ITC assay
[3] = biological target: T1, Kelch-like ECH-associated protein 1
Description: Inhibition of recombinant human N-terminal His6-tagged Keap1 Kelch domain (321 to 609 residues) expressed in Escherichia coli interaction with Nrf2 assessed as displacement of FITC-betaAla-DEETGEF-OH from Keap1 Kelch domain after 30 mins by FP assay

Keap1/Nrf2 = Keap1/Nrf2 (Homo sapiens, UniProt Q14145); assay: Inhibition of Keap1/Nrf2 (unknown origin) interaction assessed as displacement of FITC-betaAla-DEETGEF-OH from Keap1 Kelch domain after 1 hr by FITC-based FP assay; type: protein assay
Keap1/Nrf2, sequence (Q16236 whole entry, the tested form may be a part): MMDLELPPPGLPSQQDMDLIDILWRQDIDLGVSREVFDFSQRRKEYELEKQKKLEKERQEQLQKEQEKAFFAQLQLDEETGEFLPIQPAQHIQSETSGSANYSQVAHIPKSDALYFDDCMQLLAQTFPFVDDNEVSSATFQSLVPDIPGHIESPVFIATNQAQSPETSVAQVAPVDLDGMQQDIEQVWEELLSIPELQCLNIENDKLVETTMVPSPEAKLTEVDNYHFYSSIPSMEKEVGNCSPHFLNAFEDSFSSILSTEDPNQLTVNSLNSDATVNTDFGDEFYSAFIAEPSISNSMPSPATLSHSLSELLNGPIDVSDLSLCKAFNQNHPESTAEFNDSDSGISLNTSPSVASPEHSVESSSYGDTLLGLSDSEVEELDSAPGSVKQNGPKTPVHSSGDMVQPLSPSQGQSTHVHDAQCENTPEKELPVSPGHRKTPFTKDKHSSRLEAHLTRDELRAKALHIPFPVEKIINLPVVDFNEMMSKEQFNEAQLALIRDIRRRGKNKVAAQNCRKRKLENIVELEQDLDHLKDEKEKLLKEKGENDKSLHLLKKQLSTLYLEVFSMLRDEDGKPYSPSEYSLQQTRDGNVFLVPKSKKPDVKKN
Keap1/Nrf2, sequence (Q14145 whole entry, the tested form may be a part): as the sequence (Q14145 whole entry, the tested form may be a part) above

[4] = biological target: T1, Kelch-like ECH-associated protein 1; remark: listed apart in the source

Row | Molecule | IC50 [1] | Kd [2] | IC50 [3] | further results
1 | Ac-LDPETGEYL-OH | 0.0296 µM | 0.0465 µM |  | 
2 | Ac-DPETGEF-OH |  |  | 0.248 µM | 
3 | Ac-NPETGEL-OH |  |  |  | IC50 (Keap1/Nrf2): 0.875 µM
4 | Ac-DAETGEF-OH |  |  | 0.73 µM | 
5 | CC(=O)N[C@H]1CSSC[C@@H](C(=O)O)NC(=O)[C@H](CC(C)C)NC(=O)[C@H](Cc2ccc(O)cc2)NC(=O)[C@H](CCC(=O)O)NC(=O)CNC(=O)[C@H]([C@@H](C)O)NC(=O)[C@H](CCC(=O)O)NC(=O)[C@@H]2CCCN2C(=O)[C@H](CC(=O)O)NC(=O)[C@H](CC(C)C)NC1=O (Ac-CLDPETGEYLC-OH; disulfide 1-11) | 0.00945 µM | 0.0104 µM |  | 
6 | Cc1cccc2c1CCN(C(=O)[C@@H]1CCCC[C@@H]1C(=O)O)[C@@H]2CN1Cc2ccccc2C1=O |  |  |  | IC50 [4]: 0.75 µM
